Experimental data taken from patent publication US8853406B2, “Substituted phenylenediamines as inhibitors of the interaction between MDM2 and P53” (Janssen Pharmaceutica NV, priority 2007, dated 2014).

Tests used:
p53 in A2780 cells = assay: p53 ELISA in A2780 cells (capacity to preserve p53); type: cell-based; conditions: lowest dose giving at least 140% of the p53 value of the control, 16 hours
Experimental: The capacity of the compounds to preserve p53 in A2780 cells was measured with the p53 enzyme linked immunosorbent assay. The p53 assay is a “sandwich” enzyme immunoassay employing two polyclonal antibodies. A polyclonal antibody, specific for the p53 protein, has been immobilized onto the surface of the plastic wells. Any p53 present in the sample to be assayed will bind to the capture antibody. The biotinylated detector polyclonal antibody also recognizes p53 protein, and will bind to any p53, which has been retained by the capture antibody. The detector antibody, in turn, is bond by horseradish peroxidase-conjugated streptavidin. The horseradish peroxidase catalyses the conversion of the chromogenic substrate o-phenylene diamine, the intensity of which is proportional to the amount of p53 protein bond to the plate. The colored reaction product is quantified using a spectrophotometer. Quantitation is achieved by the construction of a standard curve using known concentrations of purified recombinant HIS tagged p53 protein (see example C.1.).
A2780 cells (ATCC) were cultivated in RPMI 1640 supplemented with 10% fetal calf serum (FCS), 2 mM L-glutamine and gentamycin at 37° C. in a humidified incubator with 5% CO2.
A2780 cells were seeded at 20.000 cells per well in a 96 well plate, cultured for 24 hours and treated with compound for 16 hours at 37° C. in a humidified incubator. After incubation, the cells were washed once with phosphate-buffered saline and 30 μl, per well, low salt RIPA buffer (20 mM tris, pH7.0, 0.5 mM EDTA, 1% Nonidet P40, 0.5% DOC, 0.05% SDS, 1 mM PMSF, 1 μg/ml aprotinin and 0.5 μ/ml leupeptin) was added. Plates were placed on ice for 30 minutes to complete the lysis. p53 protein was detected in de lysates by using the sandwich ELISA, described below.
High binding polystyrene EIA/RIA 96 well plates (Costar 9018) were coated with the capture antibody pAb1801 (Abcam ab28-100) at a concentration of 1 μg/ml in coating buffer (0.1 M NaHCO3 pH8.2), 50 μl per well. The antibody was allowed to adhere overnight at 4° C. Coated plates were washed once with phosphate-buffered saline (PBS)/0.05% Tween 20 and 300 μl of blocking buffer (PBS, 1% bovine serum albumins (BSA)) was added, for an incubation period of 2 hours at room temperature. Dilutions of purified recombinant HIS tagged p53 protein, ranging from 3-200 ng/ml, were made in blocking buffer and used as standards.
Plates were washed twice with PBS/0.05% Tween 20 and blocking buffer or standards were added at 80 μl/well. To the standards, 20 μl of lysis buffer was added. The samples were added to the other wells at 20 μl lysate/well. After an overnight incubation at 4° C., plates were washed twice with PBS/0.05% Tween 20. Aliquots of 100 μl secondary polyclonal antibody p53(FL-393) (Tebubio, sc-6243) at a concentration of 1 μg/ml in blocking buffer were added to each well and allowed to adhere for 2 hours at room temperature. Plates were washed three times with PBS/0.05% Tween 20. Detection antibody anti-rabbit HRP (sc-2004, Tebubio) at 0.04 μg/ml in PBS/1% BSA was added and incubated for 1 hour at room temperature. Plates were washed three times with PBS/0.05% Tween 20 and 100 μl of substrate buffer was added (substrate buffer was prepared shortly before use by adding 1 tablet of 10 mg o-phenylene diamine (OPD) from Sigma and 125 μl 3% H2O2 to 25 ml OPD buffer: 35 mM citric acid, 66 mM Na2HPO4, pH5.6). After 5 to 10 minutes, colour reaction was stopped by adding 50 μl stop buffer (1 M H2SO4) per well. The absorbance at dual wavelengths of 490/655 nm was measured using a Biorad micro plate reader and the results were then analyzed.
For each experiment, controls (containing no drug) and a blank incubation (containing no cells or drugs) were run in parallel. The blank value was subtracted from all control and sample values. For each sample, the value of p53 (in absorbance units) was expressed as the percentage of the value for p53 present in the control. […]

Male NMRI mice = assay: Ro-4-1284 antagonism in mice (drug induced neurological effects); type: in vivo; conditions: for activity on observations in Ro-4-1284 antagonism test: 80 mg/kg, oral administration, 3 animals; for drug induced neurological side effects: Ro-4-1284 antagonism in mice
Experimental: The test is a modification of a procedure described by Colpaert et al. (1975).^3 Male NMRI mice (22±3 g) were housed in macrolon observation cages (L×W×H: 11×12×17 cm; n=3 per cage). At the start of the experiments immediately before test compound administration, the initial body temperature of the mice was measured with a precision of 0.1° C. by inserting the thermo-sensitive probe (1.0 mm diameter) of an electric thermometer (Comark) to a constant depth of 3 cm into the esophagus until a stable reading was obtained. The right eye pupil diameter was measured with a graduated microscope and expressed in 1/24 mm units. Fifteen min after test compound administration, the mice were challenged with Ro-4-1284 (10 mg/kg, s.c.). Ro-4-1284 is a reserpine-like vesicular monoamine transport (VMAT-2) inhibitor, which rapidly depletes secretory vesicles.^3,4 Fifteen, 30 and 60 min after challenge, the mice were scored for palpebral opening (0, 1, 2, 3, 4, 5) and locomotor activity (−1, 0, 1, 2, 3). At the 60-min interval, immediately after the scoring of overt behavior, the right eye pupil diameter and the esophageal temperature were measured again. Abnormal phenomena such as intensive sniffing, chewing, rearing, hyperemia, piloerection, salivation, tremors, convulsions and death were noted (the latter phenomena were also noted when occurring before Ro-4-1284 administration). Criteria for drug-induced effects: reversal of ptosis: palpebral opening score >1 at 15, 30 or 60 min (2.7, 0.5 and 0% false positive controls, respectively; n>350); induction of prostration: score −1 for locomotion at 15, 30 or 60 min (never observed in controls); reversal of hypomotility: score >0 for locomotion at 15, 30 and 60 min (2.2, 0.8 and 0% false positive controls, respectively); reversal of miosis: pupil diameter >5 units at 60 min (0.8% false positives); potentiation of hypothermia: temperature decrease (over the 1-h time interval)>9.0° C. (1.4% false positives); reversal of hypothermia: temperature decrease <3.0° C. (1.8% false positives).
According to the standard procedure, R0-4-1284 is injected 15 min following subcutaneous or oral administration and observations start 15 min later. Doses are initially given to 3 animals. When at least 2 out of the 3 animals show activity for at least one of the observations, the compound is considered active.

SMILES | A2780 p53-elisa LAD (p53 in A2780 cells; listed as drawing 35) | activity on observations in Ro-4-1284 antagonism test (Male NMRI mice) | drug induced neurological side effects (Male NMRI mice) | A2780 p53-elisa LAD (p53 in A2780 cells; listed as drawing 36)
Cc1cc(Nc2ccnc3c2CCC3O)ccc1NCCc1c[nH]c2c(C)cccc12 (single isomer, unassigned) [Compound No. 1] | 3.00E-08 | did not show activity on any observation on any animal | No | –
Cc1cc(Nc2ccnc3c2CCC3O)ccc1NCCc1c[nH]c2c(C)cccc12 (single isomer, unassigned) [Compound No. 2] | – | did not show activity on any observation on any animal | No | 1.00E-07
